Experimental data taken from patent US8609651B2, “Pharmaceutical compositions of benzodiazepines and method of use thereof” (Jazz Pharmaceuticals, Inc., priority 2006, dated 2013).
Converted amounts (≈) assume the structure as drawn. Like-named read-outs stand apart in the source and are kept apart here.

What was measured:
[1] = Human pharmacokinetic study (oral, intravenous, intranasal cross-over); details: after 1 mg clonazepam
Description: The human pharmacokinetics, safety, and tolerability of the benzodiazepines compositions of the present invention formulated for intranasal delivery for therapeutic applications are evaluated using standard clinical procedures. Benzodiazepine compositions formulated for intranasal delivery are provided, for example, for application by the participants to intranasal mucosa.
A primary objective of initial studies in humans is to determine and compare pharmacokinetic profiles of three dosage forms of a benzodiazepine: oral, i.v., and intranasal, following single administration. An example of such a study in humans is a cross-over study performed in 12 healthy male volunteers. Plasma and urine level of clonazepam and 7-amino-clonazepam are determined, for example, using HPLC and UV detection. […] Further the initial studies in humans are used to determine local tolerability of intranasal formulation using questionnaire and the Visual Analog Scale (VAS). VAS is a validated instrument that has been used in numerous studies to quantify subjective […]. In addition, cognitive, sleepiness and mood effects are evaluated using questionnaires and scales (see, e.g., Example 10 below). Further, attention and vigilance may be evaluated using, for example, LEEDS Psychomotor Multiple Choice Reaction Time (MCRT) testing.
A human pharmacokinetic study was carried out as described in Example 8.
15 young, healthy male volunteers received a single dose of 1 mg clonazepam by oral, intravenous and intranasal routes in a three-period cross-over design.

[2] = Viscosity of solvent matrices (Brookfield DV-I viscometer); assay type: physicochemical; details: solvent matrix without drug
Description: (§1) Fourteen representative solvent matrices used for clonazepam formulations were tested for spray pattern and compared with water. The solvent mixtures were made up, spiked with minute amounts of Coomassie Brilliant Blue Dye and 100 μL were subsequently filled into Pfeiffer unit-dose devices (Pfeiffer of America, Princeton, N.J.). To measure the spray pattern, the devices were actuated below a sheet of paper that was located 3 cm above the spray nozzle. All measurements were made at ambient room temperature (20-25° C.). The smallest (Dmin) and the largest (Dmax) diameter of the blue pattern formed on the sheet of paper were measured and the results used to calculate the Dmax/Dmin ratio, the area of the pattern and the average spray angle. The plume area at 3 cm was calculated using the equation for the area of an ellipse using the half of the two diameters as the ellipse radii. Viscosity of all formulations was measured using Brookfield DV-I viscometer (Brookfield Engineering Laboratories, Inc., Middleboro, Mass.).

[3] = Spray pattern of solvent matrices (plume area, spray angle, Dmax/Dmin); assay type: physicochemical; details: 100 μL from Pfeiffer unit-dose device, paper 3 cm above nozzle, 20-25° C.
Description: as §1

[4] = Drug recovery, degradation and binding to nasal sheep mucosa; assay type: in vitro ADME; details: sheep nasal mucosa (excised tissue) in buffer, 37° C., read-out: % recovery in the presence of nasal sheep mucosa
Description: (i) Drug recovery, degradation and binding to nasal sheep mucosa: The effect of drug recovery, degradation and binding to sheep nasal mucosa was determined. Briefly, a known surface area (approx. 1 cm^2) of sheep nasal mucosa was added into a glass vial containing a known concentration (10 μg/mL) of each drug prepared in the receiver fluid (10% ethanol in pH 6 buffer). The content of the vial was allowed to equilibrate at 37° C. over a period of 48 h. At 24 h intervals, a sample was removed and assayed via HPLC. The percentage of drug recovered was calculated using Equation 4: % drug recovered=(drug concentration at t=Y/drug concentration at t=Z)×100 (Equation 4)
where, Y=specific time point at 37° C. (in the presence of nasal sheep mucosa); and Z=specific time point at 37° C. (in the absence of nasal sheep mucosa).
In addition to the stability against heat degradation, the effect of drug binding or degradation in the presence of nasal sheep mucosa was also determined (Table 6).

[5] = in vivo; cited from earlier work
[6] = Effect of temperature on viscosity (Gilmont falling ball viscometer); assay type: physicochemical
Description: As weather may dictate substantially different conditions of use, the effect of temperature on viscosity was determined. A Gilmont falling ball viscometer was filled with diethylene glycol monoethyl ether and calibrated for several hours at each temperature. At −17° C., 8° C., 23° C. and 40° C. the measured viscosity was 6.6 cP, 5.4 cP, 3.8 cP and 3.1 cP, respectively.

[7] = Saturated solubility in receiver fluid systems (HPLC); details: 37 °C, thermodynamic from solid
Description: Following the stability studies, a suitable receiver fluid was developed in order to ensure that sink conditions for tested drug were such that the drug release was limited by the solubility of the drug in the receiver fluid. […] Briefly, drug was saturated into different receiver fluid systems by adding excess drug and allowed to stir with a magnetic flea over a period of 2 h at 37° C. Each saturated solution was then filtered using a 0.2 μm syringe filter and the resultant solution was assayed via HPLC.
Calibration curves for clonazepam were constructed between 0.2 to 10 μg/mL with appropriate replicates to ensure repeatability and linearity.
Standards were prepared in receiver fluid (10% ethanol in buffer 6). […] The filtration at room temperature was performed as quickly as possible to minimize any drug precipitation as the temperature dropped from 37° C. during filtration.

[8] = Solubility of benzodiazepines in DEGEE (Transcutol) at 25° C. and −16° C.; details: organic solvent or mixture, thermodynamic from solid
Description: The solubilities of several other benzodiazepines were measured in DEGEE (diethylene glycol monoethyl ether, transcutol) by the techniques of Example 1. Initially, 10 mg of the drug was loaded in the glass vial and 130-μL of DEGEE was added, and the samples were sonicated for 10 minutes. […] Samples were stored at −16° C. and 25° C. overnight, and centrifuged (5000 rpm, 2 minutes, −10° C. and 23° C. for the −16° C. and 25° C. samples, respectively). […] Clonazepam was measured by UV at 350 nm; all others at 300 nm.

Nc1ccc2c(c1)C(c1ccccc1Cl)=NCC(=O)N2 [7-Amino-clonazepam]
mean AUCt of metabolite ([1]; intranasal): 16.9 ng·h/mL | mean Cmax of metabolite ([1]; intranasal): 1.17 ng/mL | mean AUCt of metabolite ([1]; intravenous): approximately 30 ng·h/mL | mean Cmax of metabolite ([1]; intravenous): approximately 2 ng/mL | mean AUCt of metabolite ([1]; oral): approximately 30 ng·h/mL | mean Cmax of metabolite ([1]; oral): approximately 2 ng/mL

O [Water]
Avg. viscosity [2]: 1.0 cP | Ratio Dmax/Dmin [3]: 1.10 | Spray angle ([3]; average angle calculated from diameters): 73.1 ° | Plume area at 3 cm ([3]; ellipse area from Dmax and Dmin): 15.52 cm^2

CN1C(=O)CN=C(c2ccccc2)c2cc(Cl)ccc21 [Diazepam]
recovery at 24 h, 10 μg/mL ([4]; buffer pH 5 (10% ethanol)): 97.6% | recovery at 48 h, 10 μg/mL ([4]; buffer pH 5 (10% ethanol)): 95.6% | recovery at 24 h, 10 μg/mL ([4]; buffer pH 6 (10% ethanol)): 98% | recovery at 48 h, 10 μg/mL ([4]; buffer pH 6 (10% ethanol)): 125% | recovery at 24 h, 10 μg/mL ([4]; buffer pH 7 (10% ethanol)): 97.6% | recovery at 48 h, 10 μg/mL ([4]; buffer pH 7 (10% ethanol)): 94.7% | roughly equal dose (potency equivalence) [5]: ~5.0 mg

CCOCCOCCO [diethylene glycol monoethyl ether]
viscosity ([6]; 8° C.): 5.4 cP | viscosity ([6]; 23° C.): 3.8 cP | viscosity ([6]; 40° C.): 3.1 cP | viscosity ([6]; −17° C.): 6.6 cP

O=C1Nc2ccc(Cl)cc2C(c2ccccc2Cl)=NC1O (stereo not shown) [Lorazepam]
recovery at 24 h, 10 μg/mL ([4]; buffer pH 5 (10% ethanol)): 96.9% | recovery at 48 h, 10 μg/mL ([4]; buffer pH 5 (10% ethanol)): 94.9% | recovery at 24 h, 10 μg/mL ([4]; buffer pH 6 (10% ethanol)): 96.8% | recovery at 48 h, 10 μg/mL ([4]; buffer pH 6 (10% ethanol)): 97% | recovery at 24 h, 10 μg/mL ([4]; buffer pH 7 (10% ethanol)): 96.2% | recovery at 48 h, 10 μg/mL ([4]; buffer pH 7 (10% ethanol)): 91.7% | half-life [5]: 8 to 24 h | roughly equal dose (potency equivalence) [5]: ~1.0 mg | solubility at 2 h ([7]; pH 6, aqueous buffer, buffer pH 6, 37° C.): 78.5 µg/mL (≈ 244 µM) | solubility at 2 h ([7]; pH 6, aqueous with cosolvent or surfactant or cyclodextrin, 20% ethanol in buffer pH6, 37° C.): 309 µg/mL (≈ 962 µM) | solubility at 2 h ([7]; pH 6, aqueous with cosolvent or surfactant or cyclodextrin, receiver solution, 10% ethanol in buffer pH 6, 37° C.): 126 µg/mL (≈ 392 µM) | solubility ([8]; 25 °C): > 110000 µg/mL | solubility ([8]; -16 °C): > 130000 µg/mL
